# Assay: Solubility stated in words
# Type: physicochemical
row,solubility (in words),Compound
1,highly soluble,N=C(N)SCCS(=O)(=O)O [Comparative test E]
2,less soluble,N=C(N)SCCCS(=O)(=O)O [Comparative test F]
3,less soluble,N=C(N)SCCCCS(=O)(=O)O [Comparative test G]
4,less soluble,CC(CCSC(=N)N)S(=O)(=O)O (stereo not shown) [Comparative test H]

# — US5126227A, “High contrast photographic elements containing ballasted hydrophobic isothioureas” (priority 1990, dated 1992)
